Test results taken from patent publication US6809091B1, “Substances capable of inducing apoptosis” (Takara Bio Inc., priority 1998, dated 2004).

Key:
HL-60 cells = assay: observation of apoptosis under an optical microscope; format: cell-based, human; settings: HL-60, 24 hours
Description: (1) HL-60 cells (ATCC CCL-240) incubated at 37° C. in an RPMI 1640 medium (manufactured by BioWhittaker) containing 10% of fetal bovine serum (manufactured by JRH) treated at 56° C. for 30 minutes were suspended in an RPMI 1640 medium to make the concentration 2.5×10^5 cells/5 ml.
To 5 ml of this suspension were added 10 μl of 12.5 mM, 25 mM, 50 mM or 100 mM of a 70% ethanolic solution of 4,5-dihydroxy-2-pentenal prepared in Example 6-(1), 0.05 mM, 0.5 mM, 5 mM or 50 mM of a 70% ethanolic solution of 4-hydroxy-2-cyclopenten-1-[…] prepared in Example 6-(1), 5 mM, 10 mM or 20 mM of a 70% ethanolic solution of 4-(9-adeninyl)-2-cyclopenten-1-one prepared in Example 4-(4), 2.5 mM, 5 mM, 15 mM or 25 mM of a 70% ethanolic solution of 4-(9-guaninyl)-2-cyclopenten-1-one prepared in Example 4-(5), 75 mM, 150 mM or 300 mM of a 70% ethanolic solution of 1,5-epoxy-1-hydroxy-3-penten-2-one prepared in Example 5-(2) or 5 mM, 25 mM or 50 mM of a 70% ethanolic solution of 2-(trans-3,4-dihydroxy-1-butenyl)-4-(trans-2-formylvinyl)-1,3-dioxolane prepared in Example 6-(2) followed by incubating at 37° C. in the presence of 5% carbon dioxide gas for 24 hours.
Incidentally, such phenomena were not noted in the incubated cells to which […] of 70% ethanolic solution were added used as a control.

human FGF-β = assay: cytokine production in DSEK cells, ELISA; format: cell-based; settings: DSEK cell incubation, supernatant every 24 hours
Description: Now, in the DSEK cell incubation, 150 μl/well of the supernatant liquid of the medium were recovered every 24 hours and influence of 4-hydroxy-2-cyclopenten-1-one or 4,5-dihydroxy-2-pentenal on the production of cytokines (human TGF-β, human FGF-β, human IL-1α and human IL-10) was measured using an ELISA-kit specific to each of the cytokine (the kit manufactured by INTERGEN or human FGF-β and human IL-10; and the kit manufactured by Promega for human IL-1α and human TGF-β).

[1] = test system: hIGF-1 production in Hs68 cells; assay: induction of hIGF-1 production, ELISA; format: cell-based, human; settings: for time at which the inducing activity of the hIGF production became maximum: 100 μM or more
Description: Hs 68 cells (ATCC CRL-1635) which were human […] were incubated on a D-MEM medium (manufactured by Gibco BRL) containing 10% of fetal bovine serum (FBS manufactured by BioWhittaker) at 37° C. in the presence of 5% of CO2 until the cells were saturated in the culture medium, a trypsin-EDTA solution (manufactured by BioWhittaker) was suspended in the above medium to make 3×10^5 cells/ml and each 200 μl of the suspension were placed in each well of a 96-well microtiter plate. After five days from the incubation, the medium was discarded at the stage where the cells were almost saturated in the culture medium and a medium containing 5, 10, 20, 40, 100 or 200 μM of 4,5-dihydroxy-2-pentenal or 4-hydroxy-2-cyclopenten-1-one was added thereto. A time course of 96 hours was adopted and, every 24 hours, the supernatant liquid of the incubated medium was recovered and the influence of 4,5-dihydroxy-2-pentenal and 4-hydroxy-2-cyclopenten-1-one on the induction of hIGF-1 production in Hs68 cells was measured using an ELISA-kit for hIGF-1 (manufactured by Diagnostic System Labo).

mice = assay: acute toxicity, single oral administration; format: in vivo; settings: single oral administration of 100 mg/kg
Description: When a physiologically active effective dose of the heat-treated product of the present invention and partially purified product thereof and the compound of the present invention are/is administered to mice, no acute toxicity is noted.

U937 cells = assay: cell growth of U937 cells, Premix WST-1; format: cell-based, human
Description: (1) U937 cells (ATCC CRL-1593) which were […] established from pleural effusion of patients suffering from […] were suspended in an RPMI 1640 medium containing 10% of FBS to make its concentration 5×10^5 cells/ml and each 100 μl of the suspension was placed in each well of a 96-well microtiter plate. […] The mixture was incubated at 37° C. in the presence of carbon dioxide gas and, after 24, 48 and 72 hours, 10 μl of Premix WST-1 (MK 400; manufactured by Takara Shuzo) were added. The mixture was made to react at 37° C. for three hours and the value (A450-650) obtained by subtracting the absorbance at 650 nm (A650) from that at 450 nm (A450) was defined as a degree of cell growth.

[2] = test system: heat shock protein of 70 kDa in HL-60; assay: induction of heat shock protein of 70 kDa, SDS-PAGE and blotting; format: cell-based, human; design: key: “−” means no induction; “±” means a little induction; “+” shows the intensity of induction and the more the “+”, the more the induction; ++: “+” shows the intensity of induction and the more the “+”, the more the induction; +++: “+” shows the intensity of induction and the more the “+”, the more the induction; settings: six hours

Row | SMILES | final concentration at which aggregation of nuclei, reduction in size of the cells and formation of apoptic body were confirmed (HL-60 cells) | production of human FGF-β (human FGF-β) | Inducing Activity of the hIGF-1 Production ([1]; 40 μM, 24 hours) | Inducing Activity of the hIGF-1 Production ([1]; 40 μM, 48 hours) | Inducing Activity of the hIGF-1 Production ([1]; 40 μM, 72 hours) | Inducing Activity of the hIGF-1 Production ([1]; 40 μM, 96 hours) | time at which the inducing activity of the hIGF production became maximum [1] | Inducing Activity of the hIGF-1 Production ([1]; 100 μM, 24 hours) | Inducing Activity of the hIGF-1 Production ([1]; 100 μM, 48 hours) | Inducing Activity of the hIGF-1 Production ([1]; 100 μM, 72 hours) | Inducing Activity of the hIGF-1 Production ([1]; 100 μM, 96 hours) | Inducing Activity of the hIGF-1 Production ([1]; 200 μM, 24 hours) | Inducing Activity of the hIGF-1 Production ([1]; 200 μM, 48 hours) | Inducing Activity of the hIGF-1 Production ([1]; 200 μM, 72 hours) | Inducing Activity of the hIGF-1 Production ([1]; 200 μM, 96 hours) | death (mice) | Degree of Cell Growth (U937 cells; 50 μM, 24 hours) | Degree of Cell Growth (U937 cells; 50 μM, 48 hours) | Degree of Cell Growth (U937 cells; 50 μM, 72 hours) | Degree of Cell Growth (U937 cells; 75 μM, 24 hours) | other results
1 | Nc1nc2c(ncn2C2C=CC(=O)C2)c(=O)[nH]1 (stereo not shown) [4-(9-guaninyl)-2-cyclopenten-1-one] | ≥ 39 µM | inhibited |  |  |  |  |  |  |  |  |  |  |  |  |  |  |  |  |  |  | 
2 | O=CC=CC(O)CO (single isomer, unassigned) [4,5-dihydroxy-2-pentenal, trans-4,5-dihydroxy-2-pentenal] | ≥ 1 µM |  | 0 ng/mL | 0 ng/mL | 0 ng/mL | 0 ng/mL | 24 h | 15.3 ng/mL | 10.0 ng/mL | 5.2 ng/mL | 4.6 ng/mL | 11.3 ng/mL | 11.1 ng/mL | 9.9 ng/mL | 4.5 ng/mL | no case of death | 0.821 A450-650 | 1.471 A450-650 | 1.245 A450-650 | 0.606 A450-650 | Degree of Cell Growth (U937 cells; 75 μM, 48 hours): 0.879 A450-650; Degree of Cell Growth (U937 cells; 75 μM, 72 hours): 0.862 A450-650; Degree of Cell Growth (U937 cells; 100 μM, 24 hours): 0.560 A450-650; Degree of Cell Growth (U937 cells; 100 μM, 48 hours): 0.948 A450-650; Degree of Cell Growth (U937 cells; 100 μM, 72 hours): 0.597 A450-650; Degree of Cell Growth (U937 cells; 150 μM, 24 hours): 0.505 A450-650; Degree of Cell Growth (U937 cells; 150 μM, 48 hours): 0.823 A450-650; Degree of Cell Growth (U937 cells; 150 μM, 72 hours): 0.465 A450-650; Degree of Cell Growth (U937 cells; 200 μM, 24 hours): 0.370 A450-650; Degree of Cell Growth (U937 cells; 200 μM, 48 hours): 0.644 A450-650; Degree of Cell Growth (U937 cells; 200 μM, 72 hours): 0.753 A450-650; intensity of induction of heat shock protein of 70 kDa ([2]; HL-60, 1.25 μM): −
3 | O=C/C=C/C1COC(/C=C/C(O)CO)O1 (stereo not drawn) [2-(trans-3,4-dihydroxy-1-butenyl)-4-(trans-2-formylvinyl)-1,3-dioxolane] | ≥ 80 µM |  |  |  |  |  |  |  |  |  |  |  |  |  |  |  |  |  |  |  | 
4 | O=C1C=CC(O)C1 (stereo not shown) [4-hydroxy-2-cyclopenten-1-one] |  | inhibited | 0 ng/mL | 0 ng/mL | 0 ng/mL | 0 ng/mL | 24 h | 39.9 ng/mL | 10.0 ng/mL | 9.6 ng/mL | 4.4 ng/mL | 37.9 ng/mL | 10.4 ng/mL | 9.9 ng/mL | 4.2 ng/mL | no case of death | 0.501 A450-650 | 0.930 A450-650 | 0.875 A450-650 | 0.557 A450-650 | hIGF-1 inducing activity [1]: stronger than that of 4,5-dihydroxy-2-pentenal; Degree of Cell Growth (U937 cells; 75 μM, 48 hours): 0.968 A450-650; Degree of Cell Growth (U937 cells; 75 μM, 72 hours): 0.821 A450-650; Degree of Cell Growth (U937 cells; 100 μM, 24 hours): 0.591 A450-650; Degree of Cell Growth (U937 cells; 100 μM, 48 hours): 1.054 A450-650; Degree of Cell Growth (U937 cells; 100 μM, 72 hours): 0.532 A450-650; Degree of Cell Growth (U937 cells; 150 μM, 24 hours): 0.524 A450-650; Degree of Cell Growth (U937 cells; 150 μM, 48 hours): 1.126 A450-650; Degree of Cell Growth (U937 cells; 150 μM, 72 hours): 0.478 A450-650; Degree of Cell Growth (U937 cells; 200 μM, 24 hours): 0.353 A450-650; Degree of Cell Growth (U937 cells; 200 μM, 48 hours): 0.643 A450-650; Degree of Cell Growth (U937 cells; 200 μM, 72 hours): 0.338 A450-650; intensity of induction of heat shock protein of 70 kDa ([2]; HL-60, 2.5 μM): −; intensity of induction of heat shock protein of 70 kDa ([2]; HL-60, 10 μM): +
